In ChEMBL document CHEMBL2321831, “Design, synthesis, and biological evaluations of novel 7-[7-amino-7-methyl-5-azaspiro[2.4]heptan-5-yl]-8-methoxyquinolines with potent antibacterial activity against respiratory pathogens” (J Med Chem, 2013):
In brackets after ≈: the same amount, converted by molar mass. Activity calls are given as the source filed them. No cut-off for these calls is given here.

What was measured:
[1] = Cmax in cynomolgus monkey serum at 5 mg/kg, po; type: ADME, organism-based, Macaca fascicularis; set-up: dose 5 mg/kg, route oral
Mus musculus [2] = test: Toxicity in SLC:ddY mouse assessed as induction of micronucleus formation at 150 mg/kg, iv after 24 to 48 hrs by fluorescence microscopic analysis; type: organism-based; set-up: dose 150 mg/kg, route intravenous; details: in vivo
Streptococcus pneumoniae [3] = test: Antibacterial activity against quinolone, penicillin-resistant Streptococcus pneumoniae 104835 after 18 hrs by microbroth dilution method; type: functional; details: Streptococcus pneumoniae, 104835, 18 h
Mus musculus [4] = test: Toxicity in SLC:ddY mouse assessed as mortality at 100 mg/kg, iv after 7 days; type: organism-based; set-up: dose 100 mg/kg, route intravenous; details: in vivo, 168 h
Streptococcus pneumoniae [5] = test: Ratio of MIC for levofloxacin to compound MIC for penicillin-susceptible Streptococcus pneumoniae J24; type: functional
[6] = Plasma protein binding in human at 5 ug/mL by ultrafiltration method; type: ADME, cell-free; details: read-out: PPB (converted)
Staphylococcus aureus [7] = test: Antibacterial activity against levofloxacin-resistant and methicillin-resistant Staphylococcus aureus 870307 after 18 hrs by microbroth dilution method; type: functional; details: Staphylococcus aureus, 870307, 18 h
Escherichia coli = test: Antibacterial activity against Escherichia coli NIHJ after 18 hrs by microbroth dilution method; type: functional
Staphylococcus aureus [8] = test: Antibacterial activity against Staphylococcus aureus FDA 209-P after 18 hrs by microbroth dilution method; type: functional
Pseudomonas aeruginosa = test: Antibacterial activity against Pseudomonas aeruginosa PAO1 after 18 hrs by microbroth dilution method; type: functional; details: PAO1, 18 h
Streptococcus pneumoniae [9] = test: Antibacterial activity against penicillin-susceptible Streptococcus pneumoniae J24 after 18 hrs by microbroth dilution method; type: functional; details: J24, 18 h
Streptococcus pyogenes [10] = test: Antibacterial activity against Streptococcus pyogenes G-36 after 18 hrs by microbroth dilution method; type: functional; details: G-36, 18 h
Klebsiella pneumoniae = test: Antibacterial activity against Klebsiella pneumoniae TYPE1 after 18 hrs by microbroth dilution method; type: functional; details: TYPE1, 18 h
Enterococcus faecalis [11] = test: Antibacterial activity against Enterococcus faecalis ATCC 19433 after 18 hrs by microbroth dilution method; type: functional; details: ATCC 19433, 18 h
Mus musculus [12] = test: Toxicity in SLC:ddY mouse assessed as induction of micronucleus formation at 100 mg/kg, iv after 24 to 48 hrs by fluorescence microscopic analysis; type: organism-based; set-up: dose 100 mg/kg, route intravenous; details: in vivo
[13] = Cmax in Crj:CD rat serum at 5 mg/kg, po; type: ADME, organism-based; set-up: dose 5 mg/kg, route oral
Haemophilus influenzae = test: Antibacterial activity against Haemophilus influenzae ATCC 49247 after 18 hrs by microbroth dilution method; type: functional; details: ATCC 49247, 18 h
[14] = Aqueous solubility of the compound; type: physicochemical
[15] = Drug recovery in cynomolgus monkey urine at 5 mg/kg, po after 24 hrs; type: ADME, organism-based, Macaca fascicularis; set-up: dose 5 mg/kg, route oral; details: read-out: Drug recovery
[16] = AUC (0 to 8 hrs) in Crj:CD rat liver at 5 mg/kg, po; type: ADME, organism-based; set-up: time < 8 hr, dose 5 mg/kg, route oral
[17] = Ratio of AUC (0 to 8 hrs) in Crj:CD rat lung to AUC (0 to 8 hrs) in Crj:CD rat serum at 5 mg/kg, po; type: ADME, organism-based; set-up: dose 5 mg/kg, route oral; details: read-out: Ratio AUC
Mus musculus [18] = test: Toxicity in SLC:ddY mouse assessed as induction of micronucleus formation at 50 mg/kg, iv after 24 to 48 hrs by fluorescence microscopic analysis; type: organism-based; set-up: dose 50 mg/kg, route intravenous; details: in vivo
[19] = Drug uptake in cynomolgus monkey serum at 5 mg/kg, iv after 5 mins; type: ADME, organism-based, Macaca fascicularis; set-up: dose 5 mg/kg, route intravenous; details: read-out: Drug uptake
[20] = Chloroform-phosphate buffer apparent partition coefficient of the compound, P at pH 7.4
[21] = AUC (0 to 8 hrs) in cynomolgus monkey serum at 5 mg/kg, iv; type: ADME, organism-based, Macaca fascicularis, Plasma; set-up: time < 8 hr, dose 5 mg/kg, route intravenous
[22] = AUC (0 to 8 hrs) in Crj:CD rat serum at 5 mg/kg, po; type: ADME, organism-based; set-up: time < 8 hr, dose 5 mg/kg, route oral
Mus musculus [23] = test: Toxicity in SLC:ddY mouse assessed as mortality at 150 mg/kg, iv after 7 days; type: organism-based; set-up: dose 150 mg/kg, route intravenous; details: in vivo, 168 h
Mus musculus [24] = test: Toxicity in SLC:ddY mouse assessed as mortality at 50 mg/kg, iv after 7 days; type: organism-based; set-up: dose 50 mg/kg, route intravenous; details: in vivo, 168 h
[25] = tested on: Mycoplasmoides pneumoniae; test: Antibacterial activity against Mycoplasma pneumoniae 18-1 after 18 hrs by microbroth dilution method; type: functional; details: 18-1, 18 h
[26] = Bioavailability in cynomolgus monkey at 5 mg/kg, po; type: ADME, organism-based, Macaca fascicularis; details: in vivo
[27] = tested on: Mycoplasmoides pneumoniae; test: Ratio of MIC for levofloxacin to compound MIC for Mycoplasma pneumoniae 18-1; type: functional
Bacillus subtilis [28] = test: Ratio of MIC for levofloxacin to compound MIC for Bacillus subtilis IID 685; type: functional
[29] = tested on: Staphylococcus epidermidis; test: Antibacterial activity against Staphylococcus epidermidis 56500 after 18 hrs by microbroth dilution method; type: functional; details: Staphylococcus epidermidis, 56500, 18 h
[30] = tested on: Mycoplasmoides pneumoniae; test: Antibacterial activity against Mycoplasma pneumoniae ATCC 29085 after 18 hrs by microbroth dilution method; type: functional; details: ATCC 29085, 18 h
[31] = AUC (0 to 8 hrs) in Crj:CD rat lung at 5 mg/kg, po; type: ADME, organism-based; set-up: time < 8 hr, dose 5 mg/kg, route oral
[32] = Drug recovery in cynomolgus monkey urine at 5 mg/kg, iv after 24 hrs; type: ADME, organism-based, Macaca fascicularis; set-up: dose 5 mg/kg, route intravenous; details: read-out: Drug recovery
[33] = tested on: Mycoplasmoides pneumoniae; test: Ratio of MIC for levofloxacin to compound MIC for Mycoplasma pneumoniae ATCC 29085; type: functional
Cytochrome P450 3A4 = Cytochrome P450 3A4 (Homo sapiens, UniProt P08684); test: Inhibition of CYP3A4 in human liver microsomes assessed as 1'-hydroxylation of midazolam; type: ADME, Microsome
Chlamydia pneumoniae [34] = test: Ratio of MIC for levofloxacin to compound MIC for Chlamydophila pneumoniae AR39; type: functional
[35] = tested on: Staphylococcus epidermidis; test: Ratio of MIC for levofloxacin to compound MIC for Staphylococcus epidermidis 56500; type: functional
Bacillus subtilis [36] = test: Antibacterial activity against Bacillus subtilis IID 685 after 18 hrs by microbroth dilution method; type: functional; details: IID 685, 18 h
[37] = Drug recovery in Crj:CD rat urine at 5 mg/kg, po after 24 hrs; type: ADME, organism-based; set-up: dose 5 mg/kg, route oral; details: read-out: Drug recovery
[38] = AUC (0 to 8 hrs) in Crj:CD rat kidney at 5 mg/kg, po; type: ADME, organism-based; set-up: time < 8 hr, dose 5 mg/kg, route oral
Moraxella catarrhalis = test: Antibacterial activity against Moraxella catarrhalis ATCC 25238 after 18 hrs by microbroth dilution method; type: functional; details: ATCC 25238, 18 h
hERG (KCNH2) [39] = target: T1, hERG (KCNH2) (Homo sapiens, UniProt Q12809); test: Inhibition of human ERG expressed in CHOK1 cells at 100 uM; type: cell-based; details: CHO-K1 cells expressing hERG
Streptococcus pneumoniae [40] = test: Antibacterial activity against quinolone-resistant Streptococcus pneumoniae infected in sc dosed CBA/JNCrj mouse pneumonia model administered bid measured day after final administration of drug; type: functional, organism-based
Streptococcus pyogenes [41] = test: Ratio of MIC for levofloxacin to compound MIC for Streptococcus pyogenes G-36; type: functional
Streptococcus pneumoniae [42] = test: Antibacterial activity against levofloxacin-intermediate and levofloxacin-resistant Streptococcus pneumoniae after 18 hrs by microbroth dilution method; type: functional
hERG (KCNH2) [43] = target: T1, hERG (KCNH2); test: Inhibition of human ERG expressed in CHOK1 cells at 30 uM; type: cell-based; details: CHO-K1 cells expressing hERG
Enterococcus faecalis [44] = test: Ratio of MIC for levofloxacin to compound MIC for Enterococcus faecalis ATCC 19433; type: functional
[45] = Ratio of AUC (0 to 8 hrs) in Crj:CD rat kidney to AUC (0 to 8 hrs) in Crj:CD rat serum at 5 mg/kg, po; type: ADME, organism-based; set-up: dose 5 mg/kg, route oral; details: read-out: Ratio AUC
Chlamydia pneumoniae [46] = test: Antibacterial activity against Chlamydophila pneumoniae AR39 after 18 hrs by microbroth dilution method; type: functional; details: AR39, 18 h
Staphylococcus aureus [47] = test: Ratio of MIC for levofloxacin to compound MIC for Staphylococcus aureus FDA 209-P; type: functional
[48] = Ratio of AUC (0 to 8 hrs) in Crj:CD rat liver to AUC (0 to 8 hrs) in Crj:CD rat serum at 5 mg/kg, po; type: ADME, organism-based; set-up: dose 5 mg/kg, route oral; details: read-out: Ratio AUC
Chlamydia pneumoniae [49] = test: Ratio of MIC for levofloxacin to compound MIC for Chlamydophila pneumoniae CM-1; type: functional
[50] = AUC (0 to 24 hrs) in cynomolgus monkey serum at 5 mg/kg, po; type: ADME, organism-based, Macaca fascicularis, Plasma; set-up: time < 24 hr, dose 5 mg/kg, route oral
Streptococcus pneumoniae [51] = test: Antibacterial activity against quinolone-sensitive Streptococcus pneumoniae infected in po dosed CBA/JNCrj mouse pneumonia model administered bid measured day after final administration of drug; type: functional, organism-based
Chlamydia pneumoniae [52] = test: Antibacterial activity against Chlamydophila pneumoniae CM-1 after 18 hrs by microbroth dilution method; type: functional; details: CM-1, 18 h
[53] = Primary phase half life in cynomolgus monkey serum at 5 mg/kg, iv; type: ADME, organism-based, Macaca fascicularis; set-up: dose 5 mg/kg, route intravenous; details: read-out: alphat1/2 (converted)
[54] = Half life in cynomolgus monkey serum at 5 mg/kg, po; type: ADME, organism-based, Macaca fascicularis; set-up: dose 5 mg/kg, route oral

T1 sequence (Q12809 whole entry): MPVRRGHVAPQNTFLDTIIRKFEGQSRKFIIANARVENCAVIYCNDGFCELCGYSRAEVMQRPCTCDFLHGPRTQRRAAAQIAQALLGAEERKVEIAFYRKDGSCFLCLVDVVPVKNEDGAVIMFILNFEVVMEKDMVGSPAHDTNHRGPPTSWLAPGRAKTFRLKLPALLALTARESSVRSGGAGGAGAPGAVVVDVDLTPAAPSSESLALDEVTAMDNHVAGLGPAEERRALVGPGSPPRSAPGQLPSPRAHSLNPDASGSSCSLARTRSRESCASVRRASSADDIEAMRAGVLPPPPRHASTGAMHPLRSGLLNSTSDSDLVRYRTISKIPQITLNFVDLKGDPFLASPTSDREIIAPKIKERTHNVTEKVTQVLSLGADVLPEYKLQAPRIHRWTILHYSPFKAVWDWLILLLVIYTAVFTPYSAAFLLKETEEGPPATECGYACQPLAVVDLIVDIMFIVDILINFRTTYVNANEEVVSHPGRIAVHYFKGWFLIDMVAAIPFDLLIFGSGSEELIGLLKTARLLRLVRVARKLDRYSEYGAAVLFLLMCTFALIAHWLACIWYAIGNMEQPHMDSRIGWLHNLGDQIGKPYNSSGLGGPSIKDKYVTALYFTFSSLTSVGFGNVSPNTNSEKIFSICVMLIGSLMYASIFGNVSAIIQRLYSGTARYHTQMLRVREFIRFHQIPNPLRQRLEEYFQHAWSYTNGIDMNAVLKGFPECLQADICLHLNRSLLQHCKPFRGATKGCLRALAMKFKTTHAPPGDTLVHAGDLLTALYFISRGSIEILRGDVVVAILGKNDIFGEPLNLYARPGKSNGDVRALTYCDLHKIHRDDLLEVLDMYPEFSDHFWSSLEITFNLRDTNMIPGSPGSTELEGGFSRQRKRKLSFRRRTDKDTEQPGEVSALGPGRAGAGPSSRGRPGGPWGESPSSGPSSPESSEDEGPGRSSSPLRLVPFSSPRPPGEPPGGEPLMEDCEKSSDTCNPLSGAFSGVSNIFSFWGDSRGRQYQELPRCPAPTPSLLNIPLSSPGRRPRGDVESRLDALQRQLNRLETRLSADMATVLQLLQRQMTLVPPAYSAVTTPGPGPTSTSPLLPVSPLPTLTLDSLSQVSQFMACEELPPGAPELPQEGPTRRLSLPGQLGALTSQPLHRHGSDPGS
Cytochrome P450 3A4, sequence (P08684 whole entry): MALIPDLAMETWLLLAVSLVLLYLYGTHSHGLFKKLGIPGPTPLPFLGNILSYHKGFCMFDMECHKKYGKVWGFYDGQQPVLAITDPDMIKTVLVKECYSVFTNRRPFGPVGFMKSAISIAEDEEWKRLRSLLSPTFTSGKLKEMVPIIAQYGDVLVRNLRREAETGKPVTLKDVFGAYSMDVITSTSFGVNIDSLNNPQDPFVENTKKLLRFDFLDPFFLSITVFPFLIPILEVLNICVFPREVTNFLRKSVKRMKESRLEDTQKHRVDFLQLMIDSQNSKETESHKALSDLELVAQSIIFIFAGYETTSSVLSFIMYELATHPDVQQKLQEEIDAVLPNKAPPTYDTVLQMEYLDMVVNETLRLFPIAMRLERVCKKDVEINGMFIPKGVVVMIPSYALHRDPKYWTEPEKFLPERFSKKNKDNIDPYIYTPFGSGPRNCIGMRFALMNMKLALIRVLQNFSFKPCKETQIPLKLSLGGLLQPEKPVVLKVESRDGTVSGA

COc1c(N2CC3(CC3)[C@](C)(N)C2)c(F)cc2c(=O)c(C(=O)O)cn([C@@H]3C[C@@H]3F)c12
Cmax [1]: 2200 ng/mL
Activity (Mus musculus [2]): Non-toxic
MIC (Streptococcus pneumoniae [3]): 0.39 µg/mL (≈ 0.93 µM)
Activity (Mus musculus [4]): Non-toxic
Ratio (Streptococcus pneumoniae [5]): >4
fraction unbound at 5 ug/mL [6]: 0.653
MIC (Staphylococcus aureus [7]): 0.39 µg/mL (≈ 0.93 µM)
MIC (Escherichia coli): 0.012 µg/mL (≈ 0.0286 µM)
MIC (Staphylococcus aureus [8]): 0.025 µg/mL (≈ 0.0596 µM)
MIC (Pseudomonas aeruginosa): 0.78 µg/mL (≈ 1.86 µM)
MIC (Streptococcus pneumoniae [9]): 0.05 µg/mL (≈ 0.119 µM)
MIC (Streptococcus pyogenes [10]): 0.2 µg/mL (≈ 0.477 µM)
MIC (Klebsiella pneumoniae): 0.05 µg/mL (≈ 0.119 µM)
MIC (Enterococcus faecalis [11]): 0.2 µg/mL (≈ 0.477 µM)
Activity (Mus musculus [12]): Non-toxic
Cmax [13]: 1220 ng/mL
MIC (Haemophilus influenzae): 0.012 µg/mL (≈ 0.0286 µM)
solubility [14]: 620 µg/mL (≈ 1480 µM)
dose excreted at 24 h [15]: 61.3%
AUC(0-t) at 8 h [16]: 32100 ng·h/mL
Kp [17]: 4.4
Activity (Mus musculus [18]): Non-toxic
concentration at 5 min [19]: 3660 ng/mL
P [20]: 19.2
AUC(0-t) at 8 h [21]: 23800 ng·h/mL
AUC(0-t) at 8 h [22]: 3080 ng·h/mL
Activity (Mus musculus [23]): Non-toxic
Activity (Mus musculus [24]): Non-toxic
MIC [25]: 0.12 µg/mL (≈ 0.286 µM)
bioavailability [26]: 71%
Ratio [27]: 4
Ratio (Bacillus subtilis [28]): >4
MIC [29]: 0.1 µg/mL (≈ 0.238 µM)
MIC [30]: 0.12 µg/mL (≈ 0.286 µM)
AUC(0-t) at 8 h [31]: 13700 ng·h/mL
dose excreted at 24 h [32]: 69.8%
Ratio [33]: 4
inhibition (INH) (Cytochrome P450 3A4): Not Active
Ratio (Chlamydia pneumoniae [34]): 4
Ratio [35]: >4
MIC (Bacillus subtilis [36]): 0.1 µg/mL (≈ 0.238 µM)
dose excreted at 24 h [37]: 32%
AUC(0-t) at 8 h [38]: 27800 ng·h/mL
MIC (Moraxella catarrhalis): 0.05 µg/mL (≈ 0.119 µM)
inhibition at 100 µM (hERG (KCNH2) [39]): 2.7%
Activity (Streptococcus pneumoniae [40]): Active
Ratio (Streptococcus pyogenes [41]): >4
MIC50 (Streptococcus pneumoniae [42]): 1 µg/mL (≈ 2.38 µM)
MIC80 (Streptococcus pneumoniae [42]): 1 µg/mL (≈ 2.38 µM)
MIC90 (Streptococcus pneumoniae [42]): 1 µg/mL (≈ 2.38 µM)
inhibition at 30 µM (hERG (KCNH2) [43]): 1.9%
Ratio (Enterococcus faecalis [44]): >4
Kp [45]: 9
MIC (Chlamydia pneumoniae [46]): 0.125 µg/mL (≈ 0.298 µM)
Ratio (Staphylococcus aureus [47]): >4
Kp [48]: 10.4
Ratio (Chlamydia pneumoniae [49]): 4
AUC(0-t) at 24 h [50]: 16900 ng·h/mL
Activity (Streptococcus pneumoniae [51]): Active
MIC (Chlamydia pneumoniae [52]): 0.063 µg/mL (≈ 0.15 µM)
half-life [53]: 4.8 h
half-life [54]: 4.8 h
